Laboratory results reported in publication PMC6934184, “Selective DNA-PKcs inhibition extends the therapeutic index of localized radiotherapy and chemotherapy” (The Journal of Clinical Investigation, 2019).

Target: T1, RIPK2 (Homo sapiens, UniProt O43353)
T1 construct: purchased Thermo Fisher Scientific (Life Technologies) SelectScreen
Assay: SelectScreen LanthaScreen
Type: binding
Conditions: read-out: % displacement
Experimental: The in vitro kinase selectivity of NU5455 was determined using the SelectScreen Broad Assay Panel (Thermo Fisher Scientific) involving activity and binding assays (Supplemental Table 1). […] Class IA PI3Ks were measured using the p85α subunit.
Kinase [ATP] % Assay Kinase [ATP] % Assay Kinase [ATP] % Assay Kinase [ATP] % Assay […]
MAPK11 (p38 beta) Km app 9.5 Z RIPK2 n/a 3.1 L AKT2 (PKB beta) Km app 0.0 Z PRKCE (PKC epsilon) Km app -4.9 Z […]
SGK (SGK1) Km app 8.5 Z MAP4K2 (GCK) Km app 2.7 Z TLK2 n/a -0.3 L STK38 (NDR) n/a -5.9 L
MERTK (cMER) Km app 8.3 Z CDK2/cyclin A Km app 2.7 Z TGFBR1 (ALK5) n/a -0.4 L MATK (HYL) Km app -6.3 Z
FYN Km app 8.3 Z EPHA1 Km app 2.7 Z CLK3 Km app -0.5 Z ABL1 E255K Km app -6.6 Z
TEC n/a 8.1 L CDK2/cyclin E1 n/a 2.7 L MAP3K14 (NIK) n/a -0.5 L STK17A (DRAK1) n/a -6.6 L
KIT V654A n/a 8.1 L TESK2 n/a 2.7 L AKT3 (PKB gamma) Km app -0.5 Z JAK2 JH1 JH2 Km app -6.7 Z
ROS1 Km app 8.0 Z SPHK1 Km app 2.7 A MAP3K9 (MLK1) Km app -0.5 Z PRKACB (PRKAC beta) n/a -6.8 L
FGFR3 K650E Km app 7.9 Z AMPK A2/B1/G1 Km app 2.6 Z IKBKB (IKK beta) Km app -0.6 Z PDGFRA (PDGFR alpha) Km app -6.8 Z
RAF1 (cRAF) Y340D Y341D 100 7.9 Z DYRK3 Km app 2.6 Z CAMK2A (CaMKII alpha) Km app -0.6 Z NEK9 Km app -7.2 Z
PI4KA (PI4K alpha) 10 7.8 A CSNK1D (CK1 delta) Km app 2.6 Z PRKCB1 (PKC beta I) Km app -0.7 Z PDK1 Km app -7.3 Z […]

T1 sequence (O43353 whole entry): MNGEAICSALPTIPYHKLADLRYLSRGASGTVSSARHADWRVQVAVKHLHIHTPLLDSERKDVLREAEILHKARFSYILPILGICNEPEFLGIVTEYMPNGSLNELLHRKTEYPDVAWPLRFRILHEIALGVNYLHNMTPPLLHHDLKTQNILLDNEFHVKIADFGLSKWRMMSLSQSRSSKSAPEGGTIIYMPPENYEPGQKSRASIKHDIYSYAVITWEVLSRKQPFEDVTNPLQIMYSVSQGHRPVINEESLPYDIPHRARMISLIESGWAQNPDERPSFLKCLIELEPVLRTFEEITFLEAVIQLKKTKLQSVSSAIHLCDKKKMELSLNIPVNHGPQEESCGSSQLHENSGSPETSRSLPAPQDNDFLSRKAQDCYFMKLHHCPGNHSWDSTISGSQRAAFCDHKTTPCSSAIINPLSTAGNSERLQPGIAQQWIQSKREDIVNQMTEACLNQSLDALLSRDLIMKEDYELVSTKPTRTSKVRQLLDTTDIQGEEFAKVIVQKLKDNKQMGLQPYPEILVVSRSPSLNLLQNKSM

CN(C(=O)CN1CCOCC1)c1ccc2sc3c(-c4cccc5c(=O)cc(N6CC7CCC(C6)O7)oc45)cccc3c2c1 [NU5455]
inhibition at 1 µM: 3.1%
